This note sets out measurements from patent EP4663632A1, “COMPOUNDS USEFUL FOR THE MODULATION OF THE ACTIVITY OF STING” (Sulis Therapeutics ApS, priority 2024, dated 2025).

Some results are limits rather than exact numbers.

Test [1] concerns the target T1, C-terminal domain (CTD) of human STING (Homo sapiens, UniProt Q86WV6). As to the kind of experiment: STING binding FP assay III. On the set-up: recombinant human STING protein (155-379). The note with it: 10 nM STING (FP assay III according to the text); read-out: STING binding FP assay II, IC50. The method, then: (§1) The interaction between molecules and the C-terminal domain (CTD) of human STING was evaluated using a competition binding assay. In this assay, recombinant human STING protein (155-379) and a STING binding fluorescent probe were employed. Upon binding of the probe to STING, the rotation of the fluorescent probe is slowed due to the larger molecular size of the protein-bound complex. As a result, emitted light retains its plane of polarization, leading to an increase in fluorescence polarization. Molecules competing for the probe binding site displace the probe, which leads to rapid randomization of the polarization plane of the emitted light and a subsequent decrease in measured fluorescence polarization signal. Change in polarization was measured, allowing a comparative evaluation of the binding affinities of different compounds to the target protein.
(§2) The assay was performed in 96-well plates (ThermoFisher, cat.# 237108) containing 100µl : 10 µL test compound in 10% DMSO and buffer A (150 mM NaCl, 50 mM HEPES pH 7.5, 1 mM DTT) + 90 µL prepared master mix solution of: 4 nM fluorescein-labelled STING ligand (Probe 1; synthesis described above) in buffer A + 0.055% Tween-20 (v/v) and 35 nM STING in buffer A. Post mixing, plates were agitated at 600rpm and incubated for 20 min at room temperature. Subsequent measurements of the fluorescence polarization signal were made on a BioTek Synergy-H1 plate reader, using a polarization filter; Exc: 485/20 nm, Em: […]) with a gain-setting of 75. IC50 values were determined using a standard non-linear regression four-parameter curve fit in Graphpad Prism.
The procedure for STING binding FP assay III is the same as described for STING binding FP assay I, except for a lower STING concentration. In STING binding FP assay III, a concentration of 10 nM STING in buffer A was used.

For test [2], the target named is T2, STING (Homo sapiens, UniProt Q86WV6). As to the kind of experiment: Western Blot analysis for STING degradation (DC50) in HFF-1 cells. Further details: host or cells: HFF-1 human foreskin fibroblasts. Type of test: cell-based. As to conditions: 24h. The procedure:
To assess STING degradation in human foreskin fibroblasts HFF-1 cells (ATCC, SCRC-1041) cells were seeded at a density of 60.000 cells/well in 24-well Nunclon Delta surface treated culture plate in DMEM growth medium (supplemented with 10% FBS, 1% Pen-strep). Cells were incubated over-night at 37°C 5% CO2 to allow adhesion. Next day growth medium was renewed and a 5x concentration of test compounds (2.5% DMSO) diluted in growth medium were added to the appropriate well. The final DMSO concentration were 0.5%. Cell culture plates were returned to the incubator for additional 24h.
For cell lysing for Western Blot analysis cell culture plates were brought to ice, supernatant was removed by aspiration and cells washed 2x in ice-cold DPBS. Cells were lysed in 65 µL of RIPA buffer supplemented with cOmplete ULTRA Tablets protease inhibitor cocktail, PIERCE Phosphatase inhibitor mini tablet, Benzonase and 10mM NaF for 20 min on ice. Lysates were collected, cleared by centrifugation (13000xg for 10 min at 4°C). Samples were either analysed directly or stored at -80°C until analysis.
For Western Blotting, total protein concentration in each lysate was determined using PIERCE Gold BCA Assay kit according to manufactures protocol. 6 µg of total protein was mixed with 2x Laemmli buffer containing DTT, boiled for 5 min at 95°C, cooled on ice and loaded into each well of a 4-20% Criterion TGX gel. Proteins were separated by electrophoresis, by running for 1h at 150V. After separation proteins were blotted onto a PVDF membrane by semi-dry transfer using Trans-Blot turbo system at pre-defined BioRad MIDI protocol; 25V, 1A (fixed) for 30 min. Membranes were blocked for 1h in 5% skim milk in TBS-T20 on a rocker at room temperature followed by washing and exposure to primary antibodies against human STING 1:1000 (Cell Signalling, #13647) or loading controls Vinculin 1:1000 (Cell Signalling, #13901) or beta-Actin 1:10000 (Sigma, A5441) all diluted in 5% BSA in TBS-T20. Membranes were probed over night at 4°C on a rocker. Membranes were washed 3x in TBS-T20 followed by exposure to secondary HRP-conjugated anti-rabbit antibody or HRP-conjugated anti-mouse antibody diluted 1:10000 in 5% skim milk in TBS-T20 as appropriate. Membranes were incubated for 1h at room temperature on a rocker, then washed 3x in TBS-T20.
For generating DC50 values, the intensity of individual bands was measured using imaged and expression levels were calculated as a ratio of STING intensities vs. Reference protein intensities and normalized to DMSO control. The normalized ratios were plotted on a XY curve in GraphPad Prism where DC50 was estimated using a 4-parameter non-linear regression fitting curve.

In test [3] the target is T1, C-terminal domain (CTD) of human STING. As to the kind of experiment: STING binding FP assay II. Further details: recombinant human STING protein (155-379). The note with it: 7 nM STING. The procedure: as §1, §2
The procedure for STING binding FP assay II is the same as described for STING binding FP assay I, except for a lower STING concentration. In STING binding FP assay II, a concentration of 7 nM STING in buffer A was used.

Test [4] has as its target T2, STING. As to the kind of experiment: Western Blot analysis of inhibition of STING activation in HFF-1 cells. The class given is cell-based. On the set-up: host or cells: HFF-1 human foreskin fibroblasts. As to conditions: for STING, TBK1 and IRF1 phosphorylation: 2 h or 5 h. The procedure: To assess whether S1 STING ligands inhibit STING activation, primary human skin fibroblasts (Figure 5) or HFF-1 cells (Figure 6) were treated with various compounds which comprise only an S1 ligand domain and a Linker domain before undergoing Western Blot analysis as described below.
The cells were lysed and analysed on WB. […] The WB membrane was probed for p-STING, STING, p-IRF3, p-TBK1, and Vinculin.
Background: Immunoblotting shows a protein as a band on a membrane.

T1 sequence (Q86WV6 155-379): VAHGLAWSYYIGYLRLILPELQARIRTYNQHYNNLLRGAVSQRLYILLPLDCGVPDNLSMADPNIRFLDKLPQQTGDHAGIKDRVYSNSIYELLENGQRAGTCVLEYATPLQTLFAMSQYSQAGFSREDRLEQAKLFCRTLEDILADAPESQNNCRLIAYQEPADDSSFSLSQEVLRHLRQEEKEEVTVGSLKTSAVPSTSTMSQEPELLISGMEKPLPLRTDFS
T2 sequence (Q86WV6 whole entry): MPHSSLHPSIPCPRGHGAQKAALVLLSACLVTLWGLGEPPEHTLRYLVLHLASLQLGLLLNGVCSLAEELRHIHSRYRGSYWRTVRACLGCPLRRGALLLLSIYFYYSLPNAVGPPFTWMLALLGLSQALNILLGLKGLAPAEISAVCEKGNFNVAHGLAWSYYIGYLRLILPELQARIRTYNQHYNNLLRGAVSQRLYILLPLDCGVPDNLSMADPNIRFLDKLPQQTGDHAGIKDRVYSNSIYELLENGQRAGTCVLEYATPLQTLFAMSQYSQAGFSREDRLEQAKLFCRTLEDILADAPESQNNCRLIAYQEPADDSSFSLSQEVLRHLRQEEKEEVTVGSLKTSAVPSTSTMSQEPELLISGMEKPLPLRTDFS

By IC50 is commonly meant the concentration that gives 50% inhibition. By DC50 is commonly meant the concentration giving 50% degradation. Read a high DC50 as a less potent degrader. Turning to `CCn1nc(C)cc1C(=O)N=c1n(C)c2cc(C(N)=O)ccc2n1CCC(CCn1c(=NC(=O)c2cc(C)nn2CC)n(C)c2cc(C(N)=O)ccc21)OCC(=O)NCCOCCOCCOCCOCCC(=O)NCCOCCOCCOCCNc1cccc2c1C(=O)N(C1CCC(=O)NC1=O)C2=O` (stereo not drawn) [Example 11, N-{2-[2-(2-{2-[2-(2,6-Dioxo-3-piperidyl)-1,3-dioxo-4-isoindolinylamino]ethoxy}ethoxy)ethoxy]ethyl}15-{[(3-{5-carbamoyl-2-[(1-ethyl-3-methyl-5-pyrazolyl)carbonylimino]-3-methyl-2,3-dihydro-1H-1,3-benzimidazol-1-yl}-1-(2-{5-carbamoyl-2-[(1-ethyl-3-methyl-5-pyrazolyl)carbonylimino]-3-methyl-2,3-dihydro-1H-1,3-benzimidazol-1-yl}ethyl)propoxy)methyl]carbonylamino}-4,7,10,13-tetraoxapentadecanamide], in test [1], the IC50 amounted to 5.3 nM. This compound also showed a DC50 in test [2] (reference protein beta-actin) below 200 nM. The like results for `CCn1nc(C)cc1C(=O)N=c1n(C)c2cc(C(N)=O)ccc2n1CCC(CCn1c(=NC(=O)c2cc(C)nn2CC)n(C)c2cc(C(N)=O)ccc21)OCC(=O)NCCOCCOCCOCCOCCC(=O)NCCOCCOCCOCCOCCOCCNc1cccc2c1C(=O)N(C1CCC(=O)NC1=O)C2=O` (stereo not drawn) [Example 25] were, in that order, 3.1 nM and below 200 nM. With `CCn1nc(C)cc1C(=O)N=c1n(C)c2cc(C(N)=O)ccc2n1CCC(CCn1c(=NC(=O)c2cc(C)nn2CC)n(C)c2cc(C(N)=O)ccc21)OCC(=O)NCCOCCOCCOCCOCCC(=O)NCCOCCNc1cccc2c1C(=O)N(C1CCC(=O)NC1=O)C2=O` (stereo not drawn) [Example 6, N-(2-{2-[2-(2,6-Dioxo-3-piperidyl)-1,3-dioxo-4-isoindolinylamino]ethoxy}ethyl)15-{[(3-{5-carbamoyl-2-[(1-ethyl-3-methyl-5-pyrazolyl)carbonylimino]-3-methyl-2,3-dihydro-1H-1 ,3-benzimidazol-1-yl}-1-(2-{5-carbamoyl-2-[(1-ethyl-3-methyl-5-pyrazolyl)carbonylimino]-3-methyl-2,3-dihydro-1H-1 ,3-benzimidazol-1-yl}ethyl)propoxy)methyl]carbonylamino}-4,7,10,13-tetraoxapentadecanamide], the IC50 in test [1] amounted to 2.6 nM. The DC50 in test [2] (reference protein beta-actin) fell in the range of 200 to 1000 nM. Consider `CCn1nc(C)cc1C(=O)N=c1n(C)c2cc(C(N)=O)ccc2n1CCC(CCn1c(=NC(=O)c2cc(C)nn2CC)n(C)c2cc(C(N)=O)ccc21)OCC(=O)NCCOCCOCCOCCOCCC(=O)NCCOCCOCC(=O)N[C@H]1C[C@@H](C(=O)N[C@@H]2CCCc3ccccc32)N(C(=O)[C@@H](NC(=O)[C@H](C)NC)C2CCCCC2)C1` (stereo partly drawn) [Example 26], for which the half-maximal inhibitory concentration (IC50) in test [1] is 4.4 nM. The compound also came in with a 50% degradation concentration (DC50) in test [2] (reference protein vinculin) below 200 nM. Turning to `CCn1nc(C)cc1C(=O)N=c1n(C)c2cc(C(N)=O)ccc2n1CCC(CCn1c(=NC(=O)c2cc(C)nn2CC)n(C)c2cc(C(N)=O)ccc21)OCC(=O)NCCOCCOCCOCCOCCC(=O)NCCOCCOCCOCCOCCOc1cccc(C(=O)c2csc([C@@H]3CCCN3C(=O)[C@@H](NC(=O)[C@H](C)NC)C3CCCCC3)n2)c1` (stereo partly drawn) [Example 17], the IC50 in test [3] came to 7.9 nM.

For the compound `CCn1nc(C)cc1C(=O)/N=c1\n(C)c2cc(C(N)=O)ccc2n1CCC(CCn1/c(=N/C(=O)c2cc(C)nn2CC)n(C)c2cc(C(N)=O)ccc21)OCC(=O)NCCOCCOCC(=O)N[C@H](C(=O)N1C[C@H](O)C[C@H]1C(=O)NCc1ccc(-c2scnc2C)cc1)C(C)(C)C` (stereo partly drawn) [Example 15], the IC50 in test [3] was determined as 1.7 nM. On to `CCn1nc(C)cc1C(=O)N=c1n(C)c2cc(C(N)=O)ccc2n1CCC(CCn1c(=NC(=O)c2cc(C)nn2CC)n(C)c2cc(C(N)=O)ccc21)OCC(=O)NCCOCCOCCOCCOCCOCCNc1cccc2c1C(=O)N(C1CCC(=O)NC1=O)C2=O` (stereo not drawn) [Example 3, 1-(3-{[N-2-(2-{2-[2-(2-{2-[2-(2,6-Dioxo-3-piperidyl)-1,3-dioxo-4-isoindolinylamino]ethoxy}ethoxy)ethoxy]ethoxy}ethoxy)ethylcarbamoyl]methoxy}-5-{5-carbamoyl-2-[(1-ethyl-3-methyl-5-pyrazolyl)carbonylimino]-3-methyl-2,3-dihydro-1H-1 ,3-benzimidazol-1-yl}pentyl)-2-[(1-ethyl-3-methyl-5-pyrazolyl)carbonylimino]-3-methyl-2,3-dihydro-1H-1,3-benzimidazole-5-carboxamide], for which the DC50 in test [2] (reference protein beta-actin) was 200 to 1000 nM. For the compound `CCn1nc(C)cc1C(=O)N=c1n(C)c2cc(C(N)=O)ccc2n1CCC(CCn1c(=NC(=O)c2cc(C)nn2CC)n(C)c2cc(C(N)=O)ccc21)OCC(=O)NCCOCCOCCNc1cccc2c1C(=O)N(C1CCC(=O)NC1=O)C2=O` (stereo not drawn) [Example 12, 1-(3-{[N-2-(2-{2-[2-(2,6-Dioxo-3-piperidyl)-1,3-dioxo-4-isoindolinylamino]ethoxy}ethoxy)ethylcarbamoyl]methoxy}-5-{5-carbamoyl-2-[(1-ethyl-3-methyl-5-pyrazolyl)carbonylimino]-3-methyl-2,3-dihydro-1H-1,3-benzimidazol-1-yl}pentyl)-2-[(1-ethyl-3-methyl-5-pyrazolyl)carbonylimino]-3-methyl-2,3-dihydro-1H-1 ,3-benzimidazole-5-carboxamide], in test [3], the concentration for half-maximal inhibition (IC50) came out at 2.1 nM.

For the compound `CCn1nc(C)cc1C(=O)N=c1n(C)c2cc(C(N)=O)ccc2n1CCC(CCn1c(=NC(=O)c2cc(C)nn2CC)n(C)c2cc(C(N)=O)ccc21)OCC(=O)N1CCC[C@H]1C(=O)N1CCc2cc(OC)ccc2C1` (stereo partly drawn) [Example A26, 1-[3-(2-{(S)-2-[(6-Methoxy-1,2,3,4-tetrahydro-2-isoquinolyl)carbonyl]-1-pyrrolidinyl}-2-oxoethoxy)-5-{5-carbamoyl-2-[(1-ethyl-3-methyl-5-pyrazolyl)carbonylimino]-3-methyl-2,3-dihydro-1H-1,3-benzimidazol-1-yl}pentyl]-2-[(1-ethyl-3-methyl-5-pyrazolyl)carbonylimino]-3-methyl-2,3-dihydro-1H-1,3-benzimidazole-5-carboxamide], the “STING, TBK1 and IRF1 phosphorylation” value in test [4] (5 µM for 15 min prior to 300 nM diABZI) was “lower compared to cells treated with diABZI c3 alone”; in test [4] (5 µM for 15 min prior to 8 µg/mL cGAMP), “lower compared to cells treated with cGAMP alone”. Moreover, in test [4] (compound as single agent, no activation), the “phosphorylation of STING, IRF1 or TBK1 (agonism)” value is “no phosphorylation of STING, IRF1 or TBK1 was observed”.
